# How the values were obtained:
# Assay in all cases: relative viability (nuclei count vs DMSO), 5 days (fraction); higher = more cells survive
# ABC-1 = tested on: ABC-1
# In short: (§1)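 Each reported value is a median over duplicate plates. It expresses relative viability: treated-well nuclei count divided by vehicle-well nuclei count. Lung cancer cell lines in 1536-well plates were dosed by pin tool a day after seeding, alone with one drug or with a fixed anchor-drug dose plus five library-drug doses (not always all listed) in √10 steps, and nuclei were counted after 5 days.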
# COR-L23 = tested on: COR-L23
# In short: as §1
# EPLC-272H = tested on: EPLC-272H
# In short: as §1
# HARA = tested on: HARA
# In short: as §1
# HCC-15 = tested on: HCC-15
# In short: as §1
# HCC-78 = tested on: HCC-78
# In short: as §1
# LC-2-ad = tested on: LC-2-ad
# In short: as §1
# LU99A = tested on: LU99A
# In short: as §1
# NCI-H1651 = tested on: NCI-H1651
# In short: as §1
# NCI-H1915 = tested on: NCI-H1915
# In short: as §1
# NCI-H1993 = tested on: NCI-H1993
# In short: as §1
# NCI-H2009 = tested on: NCI-H2009
# In short: as §1
# NCI-H2085 = tested on: NCI-H2085
# In short: as §1
# NCI-H2126 = tested on: NCI-H2126
# In short: as §1
# NCI-H2342 = tested on: NCI-H2342
# In short: as §1
# NCI-H2347 = tested on: NCI-H2347
# In short: as §1
# NCI-H358 = tested on: NCI-H358
# In short: as §1
# NCI-H460 = tested on: NCI-H460
# In short: as §1
# NCI-H522 = tested on: NCI-H522
# In short: as §1
# NCI-H650 = tested on: NCI-H650
# In short: as §1
# NCI-H838 = tested on: NCI-H838
# In short: as §1
# PC-14 = tested on: PC-14
# In short: as §1
# SW 1573 = tested on: SW 1573
# In short: as §1
# UMC-11 = tested on: UMC-11
# In short: as §1
smiles,measurement,setting,value
Clc1ccc(Nc2nnc(Cc3ccncc3)c3ccccc23)cc1 [Vatalanib] + O=C(CCCCCCC(=O)Nc1ccccc1)NO [Vorinostat] (partner 1 µM),relative viability,ABC-1; first compound 0.04 µM,1.06
same,relative viability,ABC-1; first compound 0.1265 µM,0.863
same,relative viability,ABC-1; first compound 0.4 µM,1.01
same,relative viability,ABC-1; first compound 4 µM,1.39
same,relative viability,COR-L23; first compound 0.04 µM,0.356
same,relative viability,COR-L23; first compound 0.1265 µM,0.553
same,relative viability,COR-L23; first compound 0.4 µM,0.499
same,relative viability,COR-L23; first compound 1.265 µM,0.417
same,relative viability,COR-L23; first compound 4 µM,0.469
same,relative viability,EPLC-272H; first compound 0.04 µM,0.438
same,relative viability,EPLC-272H; first compound 0.1265 µM,0.702
same,relative viability,EPLC-272H; first compound 0.4 µM,0.499
same,relative viability,EPLC-272H; first compound 1.265 µM,0.617
same,relative viability,EPLC-272H; first compound 4 µM,0.561
same,relative viability,HARA; first compound 0.04 µM,0.643
same,relative viability,HARA; first compound 0.1265 µM,0.51
same,relative viability,HARA; first compound 0.4 µM,0.479
same,relative viability,HARA; first compound 1.265 µM,0.566
same,relative viability,HARA; first compound 4 µM,0.481
same,relative viability,HCC-15; first compound 0.04 µM,0.853
same,relative viability,HCC-15; first compound 0.1265 µM,0.836
same,relative viability,HCC-15; first compound 0.4 µM,0.964
same,relative viability,HCC-15; first compound 1.265 µM,0.801
same,relative viability,HCC-15; first compound 4 µM,0.863
same,relative viability,HCC-78; first compound 0.04 µM,0.425
same,relative viability,HCC-78; first compound 0.1265 µM,0.478
same,relative viability,HCC-78; first compound 0.4 µM,0.49
same,relative viability,HCC-78; first compound 1.265 µM,0.465
same,relative viability,HCC-78; first compound 4 µM,0.424
same,relative viability,LC-2-ad; first compound 0.04 µM,0.695
same,relative viability,LC-2-ad; first compound 0.1265 µM,0.743
same,relative viability,LC-2-ad; first compound 0.4 µM,0.768
same,relative viability,LC-2-ad; first compound 1.265 µM,0.682
same,relative viability,LC-2-ad; first compound 4 µM,0.676
same,relative viability,LU99A; first compound 0.04 µM,0.554
same,relative viability,LU99A; first compound 0.1265 µM,0.544
same,relative viability,LU99A; first compound 0.4 µM,0.535
same,relative viability,LU99A; first compound 1.265 µM,0.472
same,relative viability,LU99A; first compound 4 µM,0.467
same,relative viability,NCI-H1651; first compound 0.04 µM,0.506
same,relative viability,NCI-H1651; first compound 0.1265 µM,0.606
same,relative viability,NCI-H1651; first compound 0.4 µM,0.594
same,relative viability,NCI-H1651; first compound 1.265 µM,0.524
same,relative viability,NCI-H1651; first compound 4 µM,0.557
same,relative viability,NCI-H1915; first compound 0.04 µM,0.507
same,relative viability,NCI-H1915; first compound 0.1265 µM,0.544
same,relative viability,NCI-H1915; first compound 0.4 µM,0.587
same,relative viability,NCI-H1915; first compound 1.265 µM,0.482
same,relative viability,NCI-H1915; first compound 4 µM,0.518
same,relative viability,NCI-H1993; first compound 0.04 µM,0.728
same,relative viability,NCI-H1993; first compound 0.1265 µM,0.795
same,relative viability,NCI-H1993; first compound 0.4 µM,0.806
same,relative viability,NCI-H1993; first compound 1.265 µM,0.709
same,relative viability,NCI-H1993; first compound 4 µM,0.726
same,relative viability,NCI-H2009; first compound 0.04 µM,0.767
same,relative viability,NCI-H2009; first compound 0.1265 µM,0.741
same,relative viability,NCI-H2009; first compound 0.4 µM,0.735
same,relative viability,NCI-H2009; first compound 1.265 µM,0.732
same,relative viability,NCI-H2009; first compound 4 µM,0.687
same,relative viability,NCI-H2085; first compound 0.04 µM,0.868
same,relative viability,NCI-H2085; first compound 0.1265 µM,0.796
same,relative viability,NCI-H2085; first compound 0.4 µM,0.852
same,relative viability,NCI-H2085; first compound 1.265 µM,0.747
same,relative viability,NCI-H2085; first compound 4 µM,0.702
same,relative viability,NCI-H2126; first compound 0.04 µM,0.704
same,relative viability,NCI-H2126; first compound 0.1265 µM,0.835
same,relative viability,NCI-H2126; first compound 0.4 µM,0.837
same,relative viability,NCI-H2126; first compound 1.265 µM,0.766
same,relative viability,NCI-H2126; first compound 4 µM,0.691
same,relative viability,NCI-H2342; first compound 0.04 µM,0.747
same,relative viability,NCI-H2342; first compound 0.1265 µM,0.714
same,relative viability,NCI-H2342; first compound 0.4 µM,0.741
same,relative viability,NCI-H2342; first compound 1.265 µM,0.762
same,relative viability,NCI-H2342; first compound 4 µM,0.69
same,relative viability,NCI-H2347; first compound 0.04 µM,0.473
same,relative viability,NCI-H2347; first compound 0.1265 µM,0.772
same,relative viability,NCI-H2347; first compound 0.4 µM,0.516
same,relative viability,NCI-H2347; first compound 1.265 µM,0.501
same,relative viability,NCI-H2347; first compound 4 µM,0.586
same,relative viability,NCI-H358; first compound 0.04 µM,0.683
same,relative viability,NCI-H358; first compound 0.1265 µM,0.719
same,relative viability,NCI-H358; first compound 0.4 µM,0.686
same,relative viability,NCI-H358; first compound 1.265 µM,0.713
same,relative viability,NCI-H358; first compound 4 µM,0.632
same,relative viability,NCI-H460; first compound 0.04 µM,0.859
same,relative viability,NCI-H460; first compound 0.1265 µM,0.636
same,relative viability,NCI-H460; first compound 0.4 µM,0.765
same,relative viability,NCI-H460; first compound 1.265 µM,0.702
same,relative viability,NCI-H460; first compound 4 µM,0.61
same,relative viability,NCI-H522; first compound 0.04 µM,0.634
same,relative viability,NCI-H522; first compound 0.1265 µM,0.898
same,relative viability,NCI-H522; first compound 0.4 µM,1.06
same,relative viability,NCI-H522; first compound 1.265 µM,1
same,relative viability,NCI-H522; first compound 4 µM,0.895
same,relative viability,NCI-H650; first compound 0.04 µM,0.397
same,relative viability,NCI-H650; first compound 0.1265 µM,0.496
same,relative viability,NCI-H650; first compound 0.4 µM,0.453
same,relative viability,NCI-H650; first compound 1.265 µM,0.414
same,relative viability,NCI-H650; first compound 4 µM,0.443
same,relative viability,NCI-H838; first compound 0.04 µM,0.738
same,relative viability,NCI-H838; first compound 0.1265 µM,0.761
same,relative viability,NCI-H838; first compound 0.4 µM,0.775
same,relative viability,NCI-H838; first compound 1.265 µM,0.62
same,relative viability,NCI-H838; first compound 4 µM,0.694
same,relative viability,PC-14; first compound 0.04 µM,0.746
same,relative viability,PC-14; first compound 0.1265 µM,0.721
same,relative viability,PC-14; first compound 0.4 µM,0.801
same,relative viability,PC-14; first compound 1.265 µM,0.716
same,relative viability,PC-14; first compound 4 µM,0.62
same,relative viability,SW 1573; first compound 0.1265 µM,0.812
same,relative viability,SW 1573; first compound 0.4 µM,1.4
same,relative viability,SW 1573; first compound 1.265 µM,0.839
same,relative viability,SW 1573; first compound 4 µM,0.624
same,relative viability,UMC-11; first compound 0.04 µM,0.361
same,relative viability,UMC-11; first compound 0.1265 µM,0.469
same,relative viability,UMC-11; first compound 0.4 µM,0.384
same,relative viability,UMC-11; first compound 1.265 µM,0.35
same,relative viability,UMC-11; first compound 4 µM,0.415

# — the supplement of paper PMC10307832
